Columns and labels:
Assay type in all cases: biochemical
SAPK2a (h) = SAPK2a (h) (Homo sapiens, UniProt Q16539); test: Kinase inhibition assay (33P-ATP, P30 filter, scintillation counting): SAPK2a; conditions: 30µM Testsubstanz (100 µM ATP); read-out: Hemmung von Kinasen in % SAPK2a (h)
Description: (§1) Alle Kinasen werden auf zehnfache Arbeitskonzentration vor Anwendung in dem Essay verdünnt. Die Zusammensetzung des Verdünnungspuffers ist für jede Kinase in der nachfolgenden Tabelle angegeben.
(§2) Alle Substrate werden gelöst und auf eine Stammlösung in entsalztem Wasser verdünnt.
(§3) SAPK2a (h) wird in einem Endreaktionsvolumen von 25 µl mit 25 mM Tris pH 7,5, 0.02 mM EGTA, 0.33 mg/ml Myelin-Basisprotein, 10 mM MgAcetat und [γ-^33P-ATP] inkubiert (spezifische Aktivität etwa 50 cpm/pmol, Konzentration wie erforderlich). Die Reaktion wird durch Zugabe von Mg^2+[γ-^33P-ATP] initiiert. Nach 40-minütiger Inkubation bei Raumtemperatur wird die Reaktion durch Zugabe von 5 µl einer 3 %igen Phosphorsäurelösung gestoppt. 10 µl der Reaktion werden dann auf ein P30-Filter gegeben und dreimal jeweils 5 Minuten in 50 mM Phosphorsäure und einmal in Methanol gewaschen. Anschließend wird getrocknet und eine Szintillationszählung durchgeführt.

PKB (h) = PKB (h) (Homo sapiens, UniProt P31749); test: Kinase inhibition assay (33P-ATP, P30 filter, scintillation counting): PKB; conditions: 40 min; 30µM Testsubstanz (100 µM ATP); read-out: Hemmung von Kinasen in % PKB (h)
Description: as §1, §2
as §3, with “PKBα (h)(5-10mU) wird” for “SAPK2a (h) wird”, “mit 8” for “mit 25”, “mM MOPS” for “mM Tris”, “pH 7.0, 0.2” for “pH 7,5, 0.02”, “mM EDTRA, 30 µM GRPRTSSFAEGKK,” for “mM EGTA, 0.33 mg/ml Myelin-Basisprotein,”

MEK1 (h) = MEK1 (h) (Homo sapiens, UniProt Q02750); test: Kinase inhibition assay: MEK1 (coupled to MAPK2 assay); conditions: 30µM Testsubstanz (100 µM ATP); read-out: Hemmung von Kinasen in % MEK1 (h)
Description: as §1, §2
MEK1 (h)(1-5 mU) in einem Endreaktionsvolumen von 25 µl wird mit 50 mM Tris pH 7.5, 0.2 mM EGTA, 0.1 % b-Mercaptoethanol, 0,01 % Brij-35, 1 µM inaktives MAPK2 (m), 10 mM MgAcetat und kaltem ATP inkubiert (Konzentration wie erforderlich). Die Reaktion wird durch Zugabe von MgATB initiiert. Nach 40-minütiger Inkubation bei Raumtemperatur werden […] dieses Inkubationsgemisches dazu verwendet, den oben beschriebenen MAPK2-Assay zu initiieren.

MAPK1 (h) = MAPK1 (h) (Homo sapiens, UniProt P27361); test: Kinase inhibition assay: MAPK1; conditions: 30µM Testsubstanz (100 µM ATP); read-out: Hemmung von Kinasen in % MAPK1 (h)
Excerpt: as §1, §2

Lck (h) = Lck (h) (Homo sapiens, UniProt P06239); test: Kinase inhibition assay (33P-ATP, P30 filter, scintillation counting): Lck; conditions: 30µM Testsubstanz (100 µM ATP); read-out: Hemmung von Kinasen in % Lck (h)
Description: as §1, §2
(§4) Lck (h)(5-10 mU) in einem Endreaktionsvolumen von 25 µl wird mit 50 mM Tris pH 7.5, 0.1 mM EGTA, 0.1 mM NaVanadate, 250 µM KVEKIGEGTYGVVYK (Cdc2 Peptid), 10 mM MgAcetat und [γ-^33P-ATP] inkubiert (spezifische Aktivität etwa 500 cpm/pmol, Konzentration wie erforderlich). Die Reaktion wird durch Zugabe von Mg^2+[γ-^33P-ATP] initiiert. Nach 40-minütiger Inkubation bei Raumtemperatur wird die Reaktion durch Zugabe von 5 µl einer 3 %igen Phosphorsäurelösung gestoppt. 10 µl der Reaktion werden dann auf ein P30-Filter gegeben und dreimal jeweils 5 Minuten in 50 mM Phosphorsäure und einmal in Methanol gewaschen. Anschließend wird getrocknet und eine Szintillationszählung durchgeführt.

c-RAF (h) = c-RAF (h) (Homo sapiens, UniProt P04049); test: Kinase inhibition assay (33P-ATP, P30 filter, scintillation counting): c-RAF; conditions: 40 min; 30µM Testsubstanz (100 µM ATP); read-out: Hemmung von Kinasen in % c-RAF (h)
Description: as §1, §2
c-RAF (ha)(5-10 mU) in einem Endreaktionsvolumen von 25 µl wird mit 25 mM Tris pH 7.5,.0.02 mM EGTA, 0.66 mg/ml Myelin-Basisprotein, 10 mM MgAcetat und [γ-^33P-ATP] inkubiert (spezifische Aktivität etwa 50 cpm/pmol, Konzentration wie erforderlich). Die Reaktion wird durch Zugabe von Mg^2+[γ-^33P-ATP] initiiert. Nach 40-minütiger Inkubation bei Raumtemperatur wird die Reaktion durch Zugabe von 5 µl einer 3 %igen Phosphorsäurelösung gestoppt. 10 µl der Reaktion werden dann auf ein P30-Filter gegeben und dreimal jeweils 5 Minuten in 50 mM Phosphorsäure und einmal in Methanol gewaschen. Anschließend wird getrocknet und eine Szintillationszählung durchgeführt.

JNK3 (r) = JNK3 (r) (Rattus norvegicus, UniProt P49187); test: Kinase inhibition assay: JNK3; conditions: 30µM Testsubstanz (100 µM ATP); read-out: Hemmung von Kinasen in % JNK3 (r)
Excerpt: as §1, §2

MAPK2 (h) = MAPK2 (h) (Homo sapiens, UniProt P28482); test: Kinase inhibition assay: MAPK2; conditions: 30µM Testsubstanz (100 µM ATP); read-out: Hemmung von Kinasen in % MAPK2 (h)
Excerpt: as §1, §2

ROCKII (h) = test: Kinase inhibition assay (33P-ATP, P30 filter, scintillation counting): ROCK-II; conditions: 30µM Testsubstanz (100 µM ATP); 40 min
GSK3β (h) = GSK3β (h) (Homo sapiens, UniProt P49841); test: Kinase inhibition assay (33P-ATP, P30 filter, scintillation counting): GSK3β; conditions: 30µM Testsubstanz (100 µM ATP); read-out: Hemmung von Kinasen in % GSK3β (h)
Description: as §1, §2
as §4, with “GSK3β (h)(5-10mU) in” for “Lck (h)(5-10 mU) in”, “mit 8” for “mit 50”, “mM MOPS” for “mM Tris”, “pH 7.0, 0.2” for “pH 7.5, 0.1”, “mM EDTA, 20” for “mM EGTA, 0.1 mM NaVanadate, 250”, “µM […](p) EDEEE (phospho GS2” for “µM KVEKIGEGTYGVVYK (Cdc2”

PKA (h) = test: Kinase inhibition assay (33P-ATP, P30 filter, scintillation counting): PKA; conditions: 30µM Testsubstanz (100 µM ATP); 40 min

MEK1 (h), sequence (Q02750 whole entry): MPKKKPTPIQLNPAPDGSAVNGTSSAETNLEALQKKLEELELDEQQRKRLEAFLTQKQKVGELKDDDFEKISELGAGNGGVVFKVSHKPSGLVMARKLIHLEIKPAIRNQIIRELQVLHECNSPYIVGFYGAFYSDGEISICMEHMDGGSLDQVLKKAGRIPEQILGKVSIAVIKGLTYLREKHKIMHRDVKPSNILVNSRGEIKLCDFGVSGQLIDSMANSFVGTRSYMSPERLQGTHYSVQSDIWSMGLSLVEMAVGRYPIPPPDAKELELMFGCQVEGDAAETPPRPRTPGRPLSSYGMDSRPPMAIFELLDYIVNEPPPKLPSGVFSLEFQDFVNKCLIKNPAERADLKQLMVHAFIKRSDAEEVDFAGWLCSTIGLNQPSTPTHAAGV
MAPK2 (h), sequence (P28482 whole entry): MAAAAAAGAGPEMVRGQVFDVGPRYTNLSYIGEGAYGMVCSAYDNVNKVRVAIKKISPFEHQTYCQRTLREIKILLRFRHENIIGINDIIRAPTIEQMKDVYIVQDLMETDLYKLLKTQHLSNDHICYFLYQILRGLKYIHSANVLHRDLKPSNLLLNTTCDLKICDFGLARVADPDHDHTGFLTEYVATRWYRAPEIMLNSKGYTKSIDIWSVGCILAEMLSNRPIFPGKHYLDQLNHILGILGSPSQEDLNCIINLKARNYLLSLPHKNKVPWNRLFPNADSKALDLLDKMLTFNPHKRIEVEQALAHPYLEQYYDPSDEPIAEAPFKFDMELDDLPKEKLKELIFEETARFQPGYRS
c-RAF (h), sequence (P04049 whole entry): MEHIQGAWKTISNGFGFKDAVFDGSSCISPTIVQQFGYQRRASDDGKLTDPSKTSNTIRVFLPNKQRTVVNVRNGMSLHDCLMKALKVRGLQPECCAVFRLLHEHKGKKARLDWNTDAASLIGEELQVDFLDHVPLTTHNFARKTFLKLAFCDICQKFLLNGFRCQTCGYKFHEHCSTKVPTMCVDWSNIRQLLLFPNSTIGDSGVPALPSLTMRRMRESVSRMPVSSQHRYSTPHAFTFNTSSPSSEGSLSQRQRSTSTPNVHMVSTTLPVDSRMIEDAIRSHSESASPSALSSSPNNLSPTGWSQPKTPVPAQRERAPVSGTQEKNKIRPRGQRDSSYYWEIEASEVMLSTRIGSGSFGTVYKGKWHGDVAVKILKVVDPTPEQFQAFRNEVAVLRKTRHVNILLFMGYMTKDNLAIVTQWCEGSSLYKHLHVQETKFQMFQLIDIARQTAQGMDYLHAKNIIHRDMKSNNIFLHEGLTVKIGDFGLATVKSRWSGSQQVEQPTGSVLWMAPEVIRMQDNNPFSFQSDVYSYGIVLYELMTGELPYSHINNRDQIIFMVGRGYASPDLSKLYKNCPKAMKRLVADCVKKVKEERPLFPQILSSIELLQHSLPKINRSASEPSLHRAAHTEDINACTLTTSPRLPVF
MAPK1 (h), sequence (P27361 whole entry): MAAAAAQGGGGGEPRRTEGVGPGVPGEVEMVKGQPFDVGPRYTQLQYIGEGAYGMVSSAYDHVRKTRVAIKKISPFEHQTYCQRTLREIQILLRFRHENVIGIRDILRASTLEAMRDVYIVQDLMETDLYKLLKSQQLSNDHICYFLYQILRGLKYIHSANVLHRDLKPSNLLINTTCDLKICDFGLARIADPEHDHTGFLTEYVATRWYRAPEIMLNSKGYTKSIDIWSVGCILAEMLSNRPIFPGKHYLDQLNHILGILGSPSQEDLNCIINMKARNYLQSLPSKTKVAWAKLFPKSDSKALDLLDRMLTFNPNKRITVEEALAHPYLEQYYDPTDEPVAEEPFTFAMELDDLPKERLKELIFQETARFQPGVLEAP
Lck (h), sequence (P06239 whole entry): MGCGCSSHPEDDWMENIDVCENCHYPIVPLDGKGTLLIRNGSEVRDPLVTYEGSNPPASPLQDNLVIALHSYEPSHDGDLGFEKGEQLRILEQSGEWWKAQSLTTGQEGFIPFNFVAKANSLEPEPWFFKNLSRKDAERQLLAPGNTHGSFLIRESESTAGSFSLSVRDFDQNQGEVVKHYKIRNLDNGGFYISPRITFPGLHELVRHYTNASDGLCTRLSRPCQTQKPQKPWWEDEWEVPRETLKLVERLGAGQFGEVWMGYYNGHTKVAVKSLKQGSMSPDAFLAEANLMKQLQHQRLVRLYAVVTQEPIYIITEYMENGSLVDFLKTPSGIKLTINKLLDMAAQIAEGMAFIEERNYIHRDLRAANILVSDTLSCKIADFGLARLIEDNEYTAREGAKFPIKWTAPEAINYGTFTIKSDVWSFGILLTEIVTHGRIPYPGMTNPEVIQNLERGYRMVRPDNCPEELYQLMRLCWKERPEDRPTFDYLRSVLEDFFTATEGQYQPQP
PKB (h), sequence (P31749 whole entry): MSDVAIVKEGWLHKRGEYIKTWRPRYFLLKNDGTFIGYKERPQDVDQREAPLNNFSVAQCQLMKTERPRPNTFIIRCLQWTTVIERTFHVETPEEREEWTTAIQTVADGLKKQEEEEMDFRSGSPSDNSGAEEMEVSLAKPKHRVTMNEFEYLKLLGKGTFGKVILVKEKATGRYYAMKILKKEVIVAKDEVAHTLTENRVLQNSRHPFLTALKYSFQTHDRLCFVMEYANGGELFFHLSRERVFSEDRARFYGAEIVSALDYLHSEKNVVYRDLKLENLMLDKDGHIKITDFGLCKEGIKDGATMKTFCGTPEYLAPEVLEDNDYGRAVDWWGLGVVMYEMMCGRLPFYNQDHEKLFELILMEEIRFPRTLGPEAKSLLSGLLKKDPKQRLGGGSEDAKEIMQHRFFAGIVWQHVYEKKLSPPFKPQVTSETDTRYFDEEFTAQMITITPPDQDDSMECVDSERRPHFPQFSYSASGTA
JNK3 (r), sequence (P49187 whole entry): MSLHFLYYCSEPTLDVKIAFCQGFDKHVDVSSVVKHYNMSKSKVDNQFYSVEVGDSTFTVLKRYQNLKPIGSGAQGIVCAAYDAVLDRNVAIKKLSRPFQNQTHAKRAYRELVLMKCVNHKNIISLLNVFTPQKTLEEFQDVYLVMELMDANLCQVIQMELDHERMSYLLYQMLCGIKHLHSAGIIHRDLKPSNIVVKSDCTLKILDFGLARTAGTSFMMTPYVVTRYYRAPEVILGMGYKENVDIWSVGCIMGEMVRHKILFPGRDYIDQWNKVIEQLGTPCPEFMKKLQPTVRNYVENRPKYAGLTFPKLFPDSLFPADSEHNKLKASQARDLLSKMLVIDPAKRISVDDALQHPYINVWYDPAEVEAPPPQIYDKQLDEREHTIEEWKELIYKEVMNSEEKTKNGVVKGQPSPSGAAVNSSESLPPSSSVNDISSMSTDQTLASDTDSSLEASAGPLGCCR
SAPK2a (h), sequence (Q16539 whole entry): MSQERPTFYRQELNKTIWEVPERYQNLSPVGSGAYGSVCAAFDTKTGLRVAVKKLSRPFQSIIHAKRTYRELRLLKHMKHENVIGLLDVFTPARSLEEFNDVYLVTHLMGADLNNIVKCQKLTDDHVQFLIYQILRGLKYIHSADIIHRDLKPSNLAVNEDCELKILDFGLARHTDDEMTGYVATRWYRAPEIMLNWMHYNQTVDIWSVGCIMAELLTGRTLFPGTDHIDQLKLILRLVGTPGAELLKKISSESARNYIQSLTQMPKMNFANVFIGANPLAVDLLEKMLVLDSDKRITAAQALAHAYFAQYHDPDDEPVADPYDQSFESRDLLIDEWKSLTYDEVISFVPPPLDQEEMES
GSK3β (h), sequence (P49841 whole entry): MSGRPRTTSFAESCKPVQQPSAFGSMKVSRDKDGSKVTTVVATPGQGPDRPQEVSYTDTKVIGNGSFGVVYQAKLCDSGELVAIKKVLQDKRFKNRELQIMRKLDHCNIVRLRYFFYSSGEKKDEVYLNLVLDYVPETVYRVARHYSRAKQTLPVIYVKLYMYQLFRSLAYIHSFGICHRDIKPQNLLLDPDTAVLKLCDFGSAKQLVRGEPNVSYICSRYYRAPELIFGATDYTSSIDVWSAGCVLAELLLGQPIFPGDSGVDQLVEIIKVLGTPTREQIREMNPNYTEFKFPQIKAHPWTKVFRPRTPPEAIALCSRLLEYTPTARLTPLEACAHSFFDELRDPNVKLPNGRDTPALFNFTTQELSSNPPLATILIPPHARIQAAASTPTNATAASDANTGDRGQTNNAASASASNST

| Structure (SMILES) | inhibition at 30 µM (SAPK2a (h)) [%] | inhibition at 30 µM (PKB (h)) [%] | inhibition at 30 µM (MEK1 (h)) [%] | inhibition at 30 µM (MAPK1 (h)) [%] | inhibition at 30 µM (Lck (h)) [%] | inhibition at 30 µM (c-RAF (h)) [%] | inhibition at 30 µM (JNK3 (r)) [%] | inhibition at 30 µM (MAPK2 (h)) [%] | Hemmung von Kinasen in % ROCKII (h) (ROCKII (h)) [%] | inhibition at 30 µM (GSK3β (h)) [%] | Hemmung von Kinasen in % PKA (h) (PKA (h)) [%] |
| --- | --- | --- | --- | --- | --- | --- | --- | --- | --- | --- | --- |
| Cn1c(-c2ccccc2)nc2c(Sc3ccccc3)ncnc21 [Verbd. 23, 9-Methyl-8-phenyl-6-phenylsulfanyl-9H-purin] | 44 | 42 | 4 | 10 | 5 | 12 | 12 | 0 | 1 | 0 | 3 |
| c1ccc(CSc2ncnc3[nH]cnc23)cc1 [Verbd. 9, 6-Benzylsulfanyl-9H-purin] | 50 | 4 | 7 | 15 | 22 | 53 | 7 | 12 | 28 | 35 | 13 |
| Fc1ccc(Sc2ncnc3[nH]cnc23)cc1 [Verbd. 16, 6-(4-Fluoro-phenylsulfanyl)-9H-purin] | 72 | 0 | 2 | 2 | 13 | 29 | 8 | 12 | 37 | 0 | 10 |

— patent publication EP1444982A1, “The use of purine derivatives as selective kinase inhibitors” (MERCKLE GMBH, priority 2003, dated 2004)
